Reference: article PMC4207540 (Journal of Medicinal Chemistry, 2014)

How the values were obtained:
IDH1(R132H) = IDH1(R132H) (Homo sapiens, UniProt O75874, R132H); conditions: for fold less active than compound 2 against IDH1(R132H): relative to compound 2
WI-38 fibroblast cells = assay: Cytotoxicity assay; type: cell-based
WT IDH1 [1] = target: T1, WT IDH1 (Homo sapiens, UniProt O75874)
BXD-4687 = type: cell-based, human
BXD-3752 = type: cell-based, human
HT1080 cells = assay: D2HG production inhibition in HT1080 cells; conditions: Homo sapiens, HT-1080, 48 h, read-out: IC50 for inhibition of D2HG
WT IDH1 [2] = target: T1, WT IDH1; assay: biochemical
[3] = test system: breast cancer and leukemia cells; conditions: cited from earlier work

Sequence of IDH1(R132H) (O75874 whole entry R132H): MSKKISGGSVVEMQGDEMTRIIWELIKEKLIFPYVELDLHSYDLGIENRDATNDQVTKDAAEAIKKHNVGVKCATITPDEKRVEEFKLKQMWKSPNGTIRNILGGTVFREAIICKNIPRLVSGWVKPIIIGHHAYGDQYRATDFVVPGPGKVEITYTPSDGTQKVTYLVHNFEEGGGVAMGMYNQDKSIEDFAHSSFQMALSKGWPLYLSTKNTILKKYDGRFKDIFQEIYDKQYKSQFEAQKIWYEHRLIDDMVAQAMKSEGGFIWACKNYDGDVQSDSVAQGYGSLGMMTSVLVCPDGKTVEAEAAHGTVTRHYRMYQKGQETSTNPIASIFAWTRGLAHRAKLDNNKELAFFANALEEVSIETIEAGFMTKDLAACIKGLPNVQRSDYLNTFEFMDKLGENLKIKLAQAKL
T1 sequence (O75874 whole entry): as the sequence (O75874 whole entry R132H) above, with H132R counted along it

With `Cc1cc(C)n(O)c(=O)c1` [Compound 20] the “inhibitory activity against IDH1(R132H), in words” value (IDH1(R132H)) was “inactive”.

In the case of `COc1ccc(-c2ccc(Cc3cc(C)cc(=O)n3O)cc2)cc1` [Compound 58], the “selectivity for BT-142 over glioma cells without IDH1 mutation (BXD-4687, -3752)” value (BT-142 glioma cells) is reported as over 10 fold.

For `Cc1cc(Cc2ccccc2)n(O)c(=O)c1` [Compound 2], the EC50 (WI-38 fibroblast cells; Homo sapiens, WI-38, 48 h, read-out: EC50 against WI-38) was over 50 µM.

With `O=c1ccc(CCCc2ccccc2)cn1O` [Compound 11] the “inhibitory activity against IDH1(R132H), in words” value (IDH1(R132H)) was “lose the inhibitory activity”.

In the case of `Cc1ccn(O)c(=O)c1Cc1ccccc1` [Compound 30], the “fold less active than compound 2 against IDH1(R132H)” value (IDH1(R132H)) is reported as 50 fold.

With `Cc1cc(Cc2cccc(O)c2)n(O)c(=O)c1` [Compound 40] the “inhibitory activity against WT IDH1, in words” value (WT IDH1 [1]) was “do not inhibit the enzyme”.

For `COc1ccccc1Cc1cc(C)cc(=O)n1O` [Compound 41], the “fold less active than compound 2 against IDH1(R132H)” value (IDH1(R132H)) was about 2 fold.

In the case of `Cc1cc(Cc2c(F)c(F)c(F)c(F)c2F)n(O)c(=O)c1` [Compound 44], the “fold less active than compound 2 against IDH1(R132H)” value (IDH1(R132H)) is reported as about 10 fold.

With `O=c1ccc(Cc2ccccc2)c[nH]1` [Compound 21] the “inhibitory activity against IDH1(R132H), in words” value (IDH1(R132H)) was “lack of activity”.

With `Cc1cc(Cc2ccccc2O)n(O)c(=O)c1` [Compound 42] the “fold less active than compound 2 against IDH1(R132H)” value (IDH1(R132H)) was about 2 fold.

With `O=c1cccc(-c2ccccc2)n1O` [Compound 15] the “inhibitory activity against IDH1(R132H), in words” value (IDH1(R132H)) was “inactive”.

For `O=c1cccc(Cc2ccccc2)n1O` [Compound 7], the “inhibitory activity against WT IDH1, in words” value (WT IDH1 [1]) was “do not inhibit the enzyme”.

With `Cc1cc(Cc2ccccc2)oc(=O)c1` [Compound 28] the “inhibitory activity against IDH1(R132H), in words” value (IDH1(R132H)) was “inactive”.

With `Cc1ccccc1C(C(=O)NC1CCCCC1)N(C(=O)Cn1ccnc1C)c1cccc(F)c1` (stereo not drawn) [Compound 1] the “activity against BXD-4687, in words” value (BXD-4687) was “no activity”, the “activity against BXD-3752, in words” value (BXD-3752) was “no activity” and the “activity against WI-38, in words” value (WI-38 fibroblast cells) was “no activity”.

For `Cc1cc(Cc2cccc(F)c2)n(O)c(=O)c1` [Compound 43], the “fold less active than compound 2 against IDH1(R132H)” value (IDH1(R132H)) was about 10 fold.

With `O=c1n(O)ccn1Cc1ccccc1` [Compound 26] the “inhibitory activity against IDH1(R132H), in words” value (IDH1(R132H)) was “lack of activity”.

With `O=c1ccn(O)c(=O)n1Cc1ccccc1` [Compound 25] the “inhibitory activity against IDH1(R132H), in words” value (IDH1(R132H)) was “lack of activity”.

In the case of `CC(c1ccccc1)c1cccc(=O)n1O` (stereo not drawn) [Compound 16], the “inhibitory activity against IDH1(R132H), in words” value (IDH1(R132H)) is reported as “inactive”.

In the case of `CC(C)c1cc(Cc2ccccc2)n(O)c(=O)c1` [Compound 33], the “inhibitory activity against WT IDH1, in words” value (WT IDH1 [1]) is reported as “do not inhibit the enzyme” and the IC50 (HT1080 cells) is reported as over 30 µM.

For `Cc1cc(COc2ccccc2)n(O)c(=O)c1` [Compound 19], the “fold less active than compound 2 against IDH1(R132H)” value (IDH1(R132H)) was about 4 fold.

In the case of `O=c1ccc(-c2ccccc2)cn1O` [Compound 5], the “inhibitory activity against IDH1(R132H), in words” value (IDH1(R132H)) is reported as “very weak activity”.

With `O=c1cc(O)cc(Cc2ccccc2)n1O` [Compound 34] the “inhibitory activity against WT IDH1, in words” value (WT IDH1 [1]) was “do not inhibit the enzyme”, the Ki (WT IDH1 [2]) was over 30 µM and the IC50 (HT1080 cells) was 9.7 ± 1.8 µM.

For `O=c1ccc(CCc2ccccc2)cn1O` [Compound 10], the “inhibitory activity against IDH1(R132H), in words” value (IDH1(R132H)) was “lose the inhibitory activity”.

In the case of `Cc1cc(C2CCCCC2)n(O)c(=O)c1` [Compound 9, Ciclopirox, reference compound], the “inhibitory activity against IDH1(R132H), in words” value (IDH1(R132H)) is given as “inactive” and the antiproliferative activity [3] is given as “low micromolar”.

For `Cc1cc(Cc2ccccc2)oc(=S)c1` [Compound 29], the “inhibitory activity against IDH1(R132H), in words” value (IDH1(R132H)) was “inactive”.

In the case of `Cc1cc(Cc2ccccc2)n(N)c(=O)c1` [Compound 27], the “fold less active than compound 2 against IDH1(R132H)” value (IDH1(R132H)) is reported as 20 fold.

With `COc1cccc(Cc2cc(C)cc(=O)n2O)c1` [Compound 39] the “inhibitory activity against WT IDH1, in words” value (WT IDH1 [1]) was “do not inhibit the enzyme”.
